{"source": "paper PMC7602804", "about": "(Nutrients, 2020)", "key": {"[1]": {"system": "porcine brain endothelial cell (PBEC) monolayers", "test": "Apical to basolateral transport of milk peptides across porcine brain endothelial cell (PBEC) monolayers, blood-brain barrier model", "assay_type": "in vitro ADME", "details": "2.5 h", "experimental": "Capillaries were isolated from the brain cortices of domestic pigs 5–6 months old as previously described. PBECs were cultured by plating the capillaries in T75 flasks coated with collagen IV (500 µg/mL) and fibronectin (100 µg/mL) in DMEM-F12 medium, supplemented with 10% plasma-derived serum (First Link, Wolverhampton, UK), heparin (15 U), 100 units/mL of penicillin and 100 µg/mL of streptomycin (PBEC growth medium), and cultured in an incubator with humidified 5% CO2/95% air at 37 °C. Puromycin (4 µg/mL) was added to the growth medium for the first three days to obtain a pure culture of PBECs.\nAstrocyte conditioned medium was collected every third day from primary rat astrocytes, sterile filtered and frozen until use. Isolation of primary rat astrocytes and preparation of astrocyte conditioned media were carried out as described in [20].\nPBECs were grown until 70–80% confluency as described above and then passaged onto polyester culture inserts with a pore size of 0.4 μm and a growth area of 1.12 cm^2 (Costar, Corning, NY, USA) at a density of 1.1 × 10^5 cells/cm^2 in the PBEC growth medium. In the basolateral chamber, the medium consisted of 1 mL of PBEC growth medium and 0.5 mL of astrocyte conditioned medium. The medium was supplemented with differentiation factors: 550 nM of hydrocortisone, 250 μM of 8-(4-chlorophenylthio)adenosine-3′,5′-cyclic monophosphate (cAMP) and 17.5 μM of RO-201724 two days after seeding. The next day, the integrity of the PBEC monolayer was confirmed by measuring the TEER. Only PBEC monolayers with TEER values higher than 800 Ω cm^2 were used for the transport analysis.\n(§1) Following the TEER value measurement, the Caco-2 and PBEC monolayers were gently washed twice with phosphate-buffered saline, and the transport medium (Hanks’ Balanced Salt solution supplemented with 10 mM of HEPES) was added to the apical and basolateral compartments. The inserts were incubated for 15 min or 2.5 h with the purified milk peptides (0.1 mg/mL) or the synthetic PIGSENSEKTTMPLW peptide (2 µg/mL), after which medium from the apical and basolateral compartments were collected for liquid chromatography tandem mass spectrometry (LC-MS/MS) analysis. Inserts incubated with a medium without peptides served as the control in the transport experiments. Membrane integrity was validated by addition of D-[1-^14C]-Mannitol (3.5 µM, 56.8 mCi/mmol) (Perkin Elmer, Waltham, MA, USA) to the upper chamber of the culture inserts with or without milk peptides for 2.5 h. The passive permeability experiments were performed on four or five individual culture inserts. Basolateral samples were mixed with Ultima Gold liquid scintillation fluid (Perkin Elmer) and counted in a Tri-Carb 2810 TR scintillation counter (Perkin Elmer). The apparent permeability coefficient (Papp, cm/s) was determined as Papp = (dQ/dt)/(AC0) where dQ/dt is the steady state flux (cpm/s), A is the surface area of the cell culture insert membrane and C0 is the initial concentration in the apical compartment (cpm/mL).\nLC-MS/MS analysis was performed on a TripleTOF 6600 mass spectrometer equipped with an Exigent nanoLC 415 system (AB Sciex, Les Ulis, France). All samples were micro-purified using 3 M Empore C18 discs packed in pipette tips. The lyophilized samples were dissolved in 0.1% formic acid, injected on a trap column (2 cm × 100 µm inner diameter) and separated on an analytical column packed in-house in a pulled emitter (15 cm × 75 µm inner diameter). All columns were packed with ReproSil-Pur C18-AQ 3 µm resin (courtesy of Dr. Marisch, Ammerbuch-Entringen, Germany). […]"}, "Caco-2 monolayers": {"system": "Caco-2 monolayers", "test": "Apical to basolateral transport of milk peptides across Caco-2 monolayers (LC-MS/MS of basolateral medium)", "assay_type": "in vitro ADME, human", "details": "2.5 h", "experimental": "The human colorectal adenocarcinoma cell line, Caco-2, was obtained from DSMZ (Braunschweig, Germany). The cells were grown to 50–60% confluence in Dulbecco’s Modified Eagle Medium (DMEM) Glutamax cell culture medium, supplemented with 10% heat-inactivated fetal bovine serum, 100 units/mL of penicillin and 100 μg/mL of streptomycin (all from Invitrogen, Carlsbad, CA, USA) in a humidified 5% CO2/95% air atmosphere at 37 °C. The cells used in the experiments were between passages 30 and 40.\nThe Caco-2 cells used for transport studies were seeded in polyethylene terephthalate culture inserts, with a pore size of 0.4 μm and a growth area of 0.33 cm^2 at a density of approximately 25,000 cells/insert. The Caco-2 cells were grown for three weeks on the porous membrane before they were used for transepithelial transport. The integrity of the monolayers was confirmed by measuring the TEER using a Millicell ERS-2 volt ohmmeter. Only Caco-2 monolayers with TEER values above 400 Ω cm^2 were used for the transport analysis.\nas §1\nLC-MS/MS analysis was performed on a TripleTOF 6600 mass spectrometer equipped with an Exigent nanoLC 415 system (AB Sciex, Les Ulis, France). All samples were micro-purified using 3 M Empore C18 discs packed in pipette tips. The lyophilized samples were dissolved in 0.1% formic acid, injected on a trap column (2 cm × 100 µm inner diameter) and separated on an analytical column packed in-house in a pulled emitter (15 cm × 75 µm inner diameter). All columns were packed with ReproSil-Pur C18-AQ 3 µm resin (courtesy of Dr. Marisch, Ammerbuch-Entringen, Germany). Peptides were eluted directly into the mass spectrometer with a linear gradient from 5 to 35% solvent B (0.1% formic acid in acetonitrile) for 20 min with a flowrate of 250 nL/min, followed after 10 min with 100% solvent B. Data files were converted to Mascot Generic Format using the Raw Converter (version 1.1.0.18) (http://fields.scripps.edu/rawconv/) or the AB Sciex MS Data Converter beta 1.1 (AB Sciex, Les Ulis, France). The generated peak lists were searched against the Bos taurus proteome (UniProt database, https://www.uniprot.org)) using an in-house Mascot search engine (Matrix Science, London, UK). The searches were made without specifying a protease and with oxidation (Met) and phosphorylation (ST) as variable modifications. Peptide tolerance was set to 10 ppm and MS/MS tolerance was set to 0.2 Da. […]"}, "[2]": {"details": "synthetic peptide 2 µg/mL apical, LC-MS/MS of basal medium"}}, "note": "No end group written: not given here."}
{"sequence": "PIGSENSEKTTMPLW [PIGSENSEKTTMPLW]", "values": [{"measurement": "Peptide identified in the basal compartment (brain side) of the PBEC BBB model (transported)", "setting": "[1]; primary PBEC on polyester inserts 0.4 μm, astrocyte conditioned medium, TEER higher than 800 Ω cm^2, A-B, mix of 192 milk peptides 0.1 mg/mL apical, HBSS + 10 mM HEPES, LC-MS/MS, five independent studies, αS1 peptide 'or' its truncated peptides stated collectively", "result": "identified in all experiments"}, {"measurement": "Fate of synthetic peptide during transport over PBEC monolayers", "setting": "[1]; [2]", "result": "cleaved by carboxypeptidases during the transport"}, {"measurement": "Peptide identified in the basolateral chamber of Caco-2 monolayers (transported)", "setting": "Caco-2 monolayers; Caco-2, 3 weeks on PET inserts 0.4 μm, TEER above 400 Ω cm^2, A-B, mix of 192 purified milk peptides 0.1 mg/mL apical, HBSS + 10 mM HEPES, LC-MS/MS of basolateral medium, identified in two out of three experiments", "result": "identified in the basolateral chamber"}, {"measurement": "Fate of synthetic peptide during transport over Caco-2 monolayers", "setting": "Caco-2 monolayers; [2]", "result": "cleaved by carboxypeptidases during the transport"}]}
